Assay results reported in patent US9555014B2, “Therapeutic regimens” (Radius Health, Inc., priority 2010, dated 2017).
Counter-ions that a name gives are not always drawn.

Test system: postmenopausal women with frequent, moderate to severe vasomotor symptoms (hot flashes)
Experiment: Phase 2a study: hot flash frequency, severity and composite score
Assay type: in vivo, human (postmenopausal women)
Settings: for Composite Scores by Week: mean; for Mean Severity Scores by Week / Weekly Mean Frequency of Mild, Moderate and Severe Hot Flash Numbers / Weekly Mean Frequency of Moderate and Severe Hot Flash Numbers: mean (SD)
Excerpt: A phase 2a study was undertaken to assess the effect of (R)-6-(2-(ethyl(4-(2-(ethylamino)ethyl)benzyl)amino)-4-methoxyphenyl)-5,6,7,8-tetrahydronaphthalen-2-ol dihydrochloride (referred to as “drug” in tables below) to alleviate hot flashes in postmenopausal women. The study design and objectives are detailed below.
This is a randomized, placebo-controlled, double-blind, parallel-group, Phase 2, multi-center, dose-finding study to evaluate the effects of (R)-6-(2-(ethyl(4-(2-(ethylamino)ethyl)benzyl)amino)-4-methoxyphenyl)-5,6,7,8-tetrahydronaphthalen-2-ol dihydrochloride in the treatment of vasomotor symptoms in postmenopausal women.
A total of 100 eligible patients will be randomized to receive one of 5 blinded treatment regimens. (R)-6-(2-(ethyl(4-(2-(ethylamino)ethyl)benzyl)amino)-4-methoxyphenyl)-5,6,7,8-tetrahydronaphthalen-2-ol dihydrochloride at doses 0, 10, 25, 50 or 100 mg will be dosed for 28-days.
Patients will document in real time hot flash frequency and severity according to a predetermined scale, in the provided electronic or paper Study Diary. Study Diary entries of hot flash frequency and severity and associated symptoms will be reviewed at each study visit. Serum markers of estrogen effect will be measured at specific study visits while on treatment.
The efficacy endpoints assessed are: • Change in frequency of hot flashes over time • Change in severity of hot flashes over time; • Change in composite score of hot flashes over time (frequency×severity)
(R)-6-(2-(ethyl(4-(2-(ethylamino)ethyl)benzyl)amino)-4-methoxyphenyl)-5,6,7,8-tetrahydronaphthalen-2-ol dihydrochloride was provided by sponsor in capsule form for oral administration. All doses (0, 10, 25, 50 and 100 mg) were provided as identical presentations. Each patient was provided with 2 containers of 28-capsules each at the start of treatment and took one capsule from each container every day for 28-days. Placebo contained the same excipients as active medication, but without (R)-6-(2-(ethyl(4-(2-(ethylamino)ethyl)benzyl)amino)-4-methoxyphenyl)-5,6,7,8-tetrahydronaphthalen-2-ol dihydrochloride. The patients were instructed to take the capsules orally in the fasted state (morning).
Changes in the efficacy endpoints of frequency, severity, and composite score of hot flashes over time; associated hot flash symptoms (palpitations, insomnia, joint aches, and headaches), PD markers of estrogen effect (FSH, LH, and lipid profile), drug levels, and MRS were to be summarized using descriptive statistics. Frequency, severity, and composite score of hot flashes over time were to be analyzed using repeated measures analysis of variance (ANOVA) with factors for treatment (treatment groups), time (study day) and their interaction. A linear trend test for treatment groups (placebo, and 10, 25, 50, 100 mg doses of drug) and for study day as well as any potential interaction between the two was to be included as part of the analyses by including both dose and time as continuous variables in the ANOVA model. Pair-wise comparisons of change from baseline were to be tested between the placebo group and each drug dose group for each timepoint; the mean difference together with a 95% confidence interval of the difference was to be presented for placebo compared with each active treatment group. Nominal p-values at Week 4 were to be presented. In addition, graphical presentations of mean (±standard error of the mean) and percent group responses over time together with repeated measures ANOVA to assess potential trend in responses over time in each dose group were to be presented. For the associated vasomotor symptoms (palpitations, insomnia, joint aches, and headaches collected in the patient diaries), patient and event frequencies were to be summarized by treatment week and treatment group.
Hot flashes were also scored according to their severity with a mild hot flash scored a “1”, a moderate hot flash scored a “2” and a severe hot flash scored a “3”. […]

SMILES: CCNCCc1ccc(CN(CC)c2cc(OC)ccc2[C@@H]2CCc3cc(O)ccc3C2)cc1 [drug, (R)-6-(2-(ethyl(4-(2-(ethylamino)ethyl)benzyl)amino)-4-methoxyphenyl)-5,6,7,8-tetrahydronaphthalen-2-ol dihydrochloride]
- Composite Scores by Week (10 mg daily PO, Week 1, ITT): 73.68
- Mean Severity Scores by Week (10 mg daily PO, Week 1, ITT): 1.99 (0.460)
- Weekly Mean Frequency of Mild, Moderate and Severe Hot Flash Numbers (10 mg daily PO, Week 1, ITT): 36.0 (18.97)
- Weekly Mean Frequency of Moderate and Severe Hot Flash Numbers (10 mg daily PO, Week 1, ITT): 30.4 (18.92)
- Composite Scores by Week (10 mg daily PO, Week 2, ITT): 47.75
- Mean Severity Scores by Week (10 mg daily PO, Week 2, ITT): 1.80 (0.514)
- Weekly Mean Frequency of Mild, Moderate and Severe Hot Flash Numbers (10 mg daily PO, Week 2, ITT): 27.2 (15.16)
- Weekly Mean Frequency of Moderate and Severe Hot Flash Numbers (10 mg daily PO, Week 2, ITT): 18.5 (13.34)
- Composite Scores by Week (10 mg daily PO, Week 3, ITT): 37.15
- Mean Severity Scores by Week (10 mg daily PO, Week 3, ITT): 1.84 (0.570)
- Weekly Mean Frequency of Mild, Moderate and Severe Hot Flash Numbers (10 mg daily PO, Week 3, ITT): 21.2 (12.99)
- Weekly Mean Frequency of Moderate and Severe Hot Flash Numbers (10 mg daily PO, Week 3, ITT): 14.5 (11.92)
- Composite Scores by Week (10 mg daily PO, Week 4, ITT): 34.35
- Mean Severity Scores by Week (10 mg daily PO, Week 4, ITT): 1.86 (0.562)
- Weekly Mean Frequency of Mild, Moderate and Severe Hot Flash Numbers (10 mg daily PO, Week 4, ITT): 19.1 (12.95)
- Weekly Mean Frequency of Moderate and Severe Hot Flash Numbers (10 mg daily PO, Week 4, ITT): 13.4 (11.54)
- reduction in severity of hot flashes compared with other groups (10 mg dose vs placebo and 25, 50, 100 mg, Table 8 / FIG. 3): greatest reduction in severity of hot flashes at all time points
- reduction in moderate and severe hot flashes compared with other groups (10 mg group vs placebo and 25, 50, 100 mg, Table 6 / FIG. 1): greatest reduction in hot flashes at each weekly time point
- reduction in all (mild, moderate and severe) hot flashes compared with other groups (10 mg group vs placebo and 25, 50, 100 mg, Table 7): greatest reduction in hot flashes at each weekly time point
- composite score reduction compared with other groups (10 mg group vs placebo and 25, 50, 100 mg, Table 9 / FIG. 4): greatest composite score reduction at each weekly timepoint
- Weekly Mean Frequency of Mild, Moderate and Severe Hot Flash Numbers (10 mg group, Baseline, ITT): 66.0 (13.89)
- Weekly Mean Frequency of Moderate and Severe Hot Flash Numbers (10 mg group, Baseline, ITT): 63.1 (14.23)
- Mean Severity Scores by Week (10 mg group, Baseline, ITT, mild=1, moderate=2, severe=3): 2.37 (0.347)
- Composite Scores by Week (10 mg group, Baseline, ITT, frequency x severity): 156.45
- Composite Scores by Week (25 mg daily PO, Week 1, ITT): 142.71
- Mean Severity Scores by Week (25 mg daily PO, Week 1, ITT): 2.12 (0.392)
- Weekly Mean Frequency of Mild, Moderate and Severe Hot Flash Numbers (25 mg daily PO, Week 1, ITT): 64.4 (48.88)
- Weekly Mean Frequency of Moderate and Severe Hot Flash Numbers (25 mg daily PO, Week 1, ITT): 57.7 (50.49)
- Composite Scores by Week (25 mg daily PO, Week 2, ITT): 102.82
- Mean Severity Scores by Week (25 mg daily PO, Week 2, ITT): 2.09 (0.447)
- Weekly Mean Frequency of Mild, Moderate and Severe Hot Flash Numbers (25 mg daily PO, Week 2, ITT): 48.0 (48.80)
- Weekly Mean Frequency of Moderate and Severe Hot Flash Numbers (25 mg daily PO, Week 2, ITT): 42.3 (49.73)
- Composite Scores by Week (25 mg daily PO, Week 3, ITT): 102.59
- Mean Severity Scores by Week (25 mg daily PO, Week 3, ITT): 2.14 (0.408)
- Weekly Mean Frequency of Mild, Moderate and Severe Hot Flash Numbers (25 mg daily PO, Week 3, ITT): 46.6 (56.27)
- Weekly Mean Frequency of Moderate and Severe Hot Flash Numbers (25 mg daily PO, Week 3, ITT): 43.3 (57.15)
- Composite Scores by Week (25 mg daily PO, Week 4, ITT): 89.59
- Mean Severity Scores by Week (25 mg daily PO, Week 4, ITT): 2.06 (0.404)
- Weekly Mean Frequency of Mild, Moderate and Severe Hot Flash Numbers (25 mg daily PO, Week 4, ITT): 42.4 (53.18)
- Weekly Mean Frequency of Moderate and Severe Hot Flash Numbers (25 mg daily PO, Week 4, ITT): 37.4 (54.76)
- Weekly Mean Frequency of Mild, Moderate and Severe Hot Flash Numbers (25 mg group, Baseline, ITT): 75.8 (46.46)
- Weekly Mean Frequency of Moderate and Severe Hot Flash Numbers (25 mg group, Baseline, ITT): 65.9 (44.30)
- Mean Severity Scores by Week (25 mg group, Baseline, ITT, mild=1, moderate=2, severe=3): 2.26 (0.348)
- Composite Scores by Week (25 mg group, Baseline, ITT, frequency x severity): 165.47
- Composite Scores by Week (50 mg daily PO, Week 1, ITT): 104.35
- Mean Severity Scores by Week (50 mg daily PO, Week 1, ITT): 1.92 (0.402)
- Weekly Mean Frequency of Mild, Moderate and Severe Hot Flash Numbers (50 mg daily PO, Week 1, ITT): 54.0 (27.15)
- Weekly Mean Frequency of Moderate and Severe Hot Flash Numbers (50 mg daily PO, Week 1, ITT): 41.7 (23.79)
- Composite Scores by Week (50 mg daily PO, Week 2, ITT): 87.78
- Mean Severity Scores by Week (50 mg daily PO, Week 2, ITT): 1.88 (0.535)
- Weekly Mean Frequency of Mild, Moderate and Severe Hot Flash Numbers (50 mg daily PO, Week 2, ITT): 45.8 (25.16)
- Weekly Mean Frequency of Moderate and Severe Hot Flash Numbers (50 mg daily PO, Week 2, ITT): 32.8 (25.52)
- Composite Scores by Week (50 mg daily PO, Week 3, ITT): 77.67
- Mean Severity Scores by Week (50 mg daily PO, Week 3, ITT): 1.86 (0.544)
- Weekly Mean Frequency of Mild, Moderate and Severe Hot Flash Numbers (50 mg daily PO, Week 3, ITT): 40.5 (22.37)
- Weekly Mean Frequency of Moderate and Severe Hot Flash Numbers (50 mg daily PO, Week 3, ITT): 29.6 (25.09)
- Composite Scores by Week (50 mg daily PO, Week 4, ITT): 75.06
- Mean Severity Scores by Week (50 mg daily PO, Week 4, ITT): 1.83 (0.568)
- Weekly Mean Frequency of Mild, Moderate and Severe Hot Flash Numbers (50 mg daily PO, Week 4, ITT): 37.9 (23.45)
- Weekly Mean Frequency of Moderate and Severe Hot Flash Numbers (50 mg daily PO, Week 4, ITT): 29.4 (26.53)
- Weekly Mean Frequency of Mild, Moderate and Severe Hot Flash Numbers (50 mg group, Baseline, ITT): 76.0 (36.96)
- Weekly Mean Frequency of Moderate and Severe Hot Flash Numbers (50 mg group, Baseline, ITT): 71.9 (36.92)
- Mean Severity Scores by Week (50 mg group, Baseline, ITT, mild=1, moderate=2, severe=3): 2.14 (0.313)
- Composite Scores by Week (50 mg group, Baseline, ITT, frequency x severity): 162.19
- Composite Scores by Week (100 mg daily PO, Week 1, ITT): 104.35
- Mean Severity Scores by Week (100 mg daily PO, Week 1, ITT): 2.04 (0.334)
- Weekly Mean Frequency of Mild, Moderate and Severe Hot Flash Numbers (100 mg daily PO, Week 1, ITT): 48.6 (23.32)
- Weekly Mean Frequency of Moderate and Severe Hot Flash Numbers (100 mg daily PO, Week 1, ITT): 41.9 (24.23)
- Composite Scores by Week (100 mg daily PO, Week 2, ITT): 87.18
- Mean Severity Scores by Week (100 mg daily PO, Week 2, ITT): 2.01 (0.406)
- Weekly Mean Frequency of Mild, Moderate and Severe Hot Flash Numbers (100 mg daily PO, Week 2, ITT): 41.6 (27.37)
- Weekly Mean Frequency of Moderate and Severe Hot Flash Numbers (100 mg daily PO, Week 2, ITT): 35.6 (28.06)
- Composite Scores by Week (100 mg daily PO, Week 3, ITT): 59.75
- Mean Severity Scores by Week (100 mg daily PO, Week 3, ITT): 1.88 (0.473)
- Weekly Mean Frequency of Mild, Moderate and Severe Hot Flash Numbers (100 mg daily PO, Week 3, ITT): 29.4 (23.91)
- Weekly Mean Frequency of Moderate and Severe Hot Flash Numbers (100 mg daily PO, Week 3, ITT): 24.5 (24.06)
- Composite Scores by Week (100 mg daily PO, Week 4, ITT): 43.67
- Mean Severity Scores by Week (100 mg daily PO, Week 4, ITT): 1.89 (0.484)
- Weekly Mean Frequency of Mild, Moderate and Severe Hot Flash Numbers (100 mg daily PO, Week 4, ITT): 23.1 (19.45)
- Weekly Mean Frequency of Moderate and Severe Hot Flash Numbers (100 mg daily PO, Week 4, ITT): 18.6 (19.16)
- Weekly Mean Frequency of Mild, Moderate and Severe Hot Flash Numbers (100 mg group, Baseline, ITT): 63.6 (13.23)
- Weekly Mean Frequency of Moderate and Severe Hot Flash Numbers (100 mg group, Baseline, ITT): 58.5 (12.67)
- Mean Severity Scores by Week (100 mg group, Baseline, ITT, mild=1, moderate=2, severe=3): 2.21 (0.330)
- Composite Scores by Week (100 mg group, Baseline, ITT, frequency x severity): 140.35
